As usually defined, the solubility is the dissolved amount per volume that the medium holds.

We go through ten compounds from US8167991B2, “Trisazo compound, ink composition, recording method, and colored article” (Nippon Kayaku Kabushiki Kaisha, priority 2006, dated 2012).

The first series in a line: Solubility of the dye compound. Format: physicochemical. As to conditions: compound obtained as a sodium salt; read-out: solubility.
With `CS(=O)(=O)O.Cc1cc(N=Nc2c(C)c(C#N)c3nc4ccccc4n3c2O)c(OCCCCS(=O)(=O)O)cc1N=Nc1ccc(N=Nc2ccc(S(=O)(=O)O)cc2)cc1S(=O)(=O)O` [Compound No. 20], the solubility was no less than 100 mg/mL.
Consider `CS(=O)(=O)O.Cc1cc(N=Nc2c(C)c(C(N)=O)c3nc4ccccc4n3c2O)c(OCCCS(=O)(=O)O)cc1N=Nc1cc(C)c(N=Nc2ccc(S(=O)(=O)O)cc2C(=O)O)cc1OCCCS(=O)(=O)O` [Compound No. 7], for which the solubility is no less than 100 mg/mL.
`CS(=O)(=O)O.Cc1cc(N=Nc2c(-c3ccccc3)c(C#N)c3nc4ccccc4n3c2O)c(OCCCS(=O)(=O)O)cc1N=Nc1ccc(N=Nc2ccc(S(=O)(=O)O)cc2)cc1S(=O)(=O)O` [Compound No. 4]: the solubility was no less than 100 mg/mL.
Consider `Cc1cc(N=Nc2c(S(=O)(=O)O)cc3c(S(=O)(=O)O)c(N=Nc4cc(S(=O)(=O)O)c5cc(S(=O)(=O)O)c(N=Nc6ccc([N+](=O)[O-])cc6S(=O)(=O)O)c(O)c5c4N)ccc3c2O)c(OCCCS(=O)(=O)O)cc1N=Nc1cc(C)c(N=Nc2ccc(S(=O)(=O)O)c3cc(S(=O)(=O)O)cc(O)c23)cc1OCCCS(=O)(=O)O` [formula (75)], for which the solubility is no less than 100 mg/mL.
As to `CCCc1c(N=Nc2cc(C)c(N=Nc3ccc(N=Nc4ccc(S(=O)(=O)O)cc4)cc3S(=O)(=O)O)cc2OCCCS(=O)(=O)O)c(O)n2c(nc3ccccc32)c1C#N.CS(=O)(=O)O` [Compound No. 3], the solubility was no less than 100 mg/mL.
Still for that read-out and setting: as for `CS(=O)(=O)O.Cc1cc(N=Nc2c(C)c(C#N)c3nc4ccccc4n3c2O)c(OCCCS(=O)(=O)O)cc1N=Nc1cc(C)c(N=Nc2ccc(S(=O)(=O)O)cc2C(=O)O)cc1OCCCS(=O)(=O)O` [Compound No. 6], the figure is no less than 100 mg/mL.

Staying with this series, now noted: water; read-out: solubility in water.
Turning to `Nc1c(N=Nc2ccc3c(O)c(N=Nc4ccc5c(O)c(N=Nc6ccc(N=Nc7ccc(S(=O)(=O)O)cc7)cc6S(=O)(=O)O)c(S(=O)(=O)O)cc5c4S(=O)(=O)O)c(S(=O)(=O)O)cc3c2S(=O)(=O)O)cc(S(=O)(=O)O)c2cc(S(=O)(=O)O)c(N=Nc3ccc([N+](=O)[O-])cc3S(=O)(=O)O)c(O)c12` [formula (II-56)], the solubility is no less than 100 mg/mL.
The same measure, in the same setting: in the case of `Nc1c(N=Nc2ccc3c(O)c(N=Nc4ccc5c(O)c(N=Nc6ccc(N=Nc7ccc(S(=O)(=O)O)cc7)cc6S(=O)(=O)O)c(S(=O)(=O)O)cc5c4S(=O)(=O)O)c(S(=O)(=O)O)cc3c2S(=O)(=O)O)cc(S(=O)(=O)O)c2cc(S(=O)(=O)O)c(N=Nc3ccc(S(=O)(=O)O)cc3[N+](=O)[O-])c(O)c12` [formula (II-57)] it was no less than 100 mg/mL; in that of `Cc1cc(N=Nc2c(S(=O)(=O)O)cc3c(S(=O)(=O)O)c(N=Nc4c(S(=O)(=O)O)cc5c(S(=O)(=O)O)c(N=Nc6cc(S(=O)(=O)O)c7cc(S(=O)(=O)O)c(N=Nc8ccc([N+](=O)[O-])cc8S(=O)(=O)O)c(O)c7c6N)ccc5c4O)ccc3c2O)c(OCCCS(=O)(=O)O)cc1N=Nc1cc(S(=O)(=O)O)cc2cc(S(=O)(=O)O)cc(O)c12` [formula (II-59)], no less than 100 mg/mL.
As to `Cc1cc(N=Nc2c(S(=O)(=O)O)cc3c(S(=O)(=O)O)c(N=Nc4c(S(=O)(=O)O)cc5c(S(=O)(=O)O)c(N=Nc6cc(S(=O)(=O)O)c7cc(S(=O)(=O)O)c(N=Nc8ccc([N+](=O)[O-])cc8S(=O)(=O)O)c(O)c7c6N)ccc5c4O)ccc3c2O)c(OCCCS(=O)(=O)O)cc1N=Nc1cc(C(=O)O)cc(C(=O)O)c1` [formula (II-61)], the solubility was no less than 100 mg/mL.
